What was measured:
SAP and SAP-A14C = assay: Inhibition of SAP hydrolysis of yeast tRNA and rabbit rRNA; format: biochemical, Saponaria officinalus; settings: rabbit 80S ribosome 100 nM or yeast tRNA 1.0 mg/mL; 10 min preincubation
Saporin L3 (SAP) = format: biochemical, Saponaria officinalus
SAP (saporin L3) [1] = target: T1, SAP (saporin L3) (Saponaria officinalis, UniProt Q2QEH4); assay: Competitive inhibition of saporin L3 with stem-loop RNA A10; format: biochemical
SAP (saporin L3) [2] = target: T1, SAP (saporin L3); assay: Ki* quoted in Table 1 from ref 19; format: biochemical; settings: read-out: Inhibition constant Ki* (nM), value taken from Schramm et al. [19]; cited from earlier work

T1 sequence (Q2QEH4 22-280 limits assumed): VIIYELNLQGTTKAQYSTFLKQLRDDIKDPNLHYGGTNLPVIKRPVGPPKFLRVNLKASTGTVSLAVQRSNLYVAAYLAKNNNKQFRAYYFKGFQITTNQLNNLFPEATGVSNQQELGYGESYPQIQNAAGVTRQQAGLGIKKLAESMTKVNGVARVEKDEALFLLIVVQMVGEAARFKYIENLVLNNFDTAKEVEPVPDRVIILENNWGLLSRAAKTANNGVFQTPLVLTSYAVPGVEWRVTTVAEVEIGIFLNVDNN

With PDpDIApGpPD [Compound 2] the “inhibition of hydrolysis of yeast tRNA and rabbit rRNA by SAP and SAP-A14C” value (SAP and SAP-A14C) was “inhibits”.

For GpGpDIApPD [Compound 41], the “inhibition of SAP (in words)” value (Saporin L3 (SAP)) was “weak inhibitors”.

For PDpGpDIApPD [Compound 39], the “inhibition of SAP (in words)” value (Saporin L3 (SAP)) was “weak inhibitors”.

For PDpApGpPD [reference compound], the Ki (Saporin L3 (SAP); RNA A10 substrate, slow-onset dissociation constant) was 16.1 µM.

For `CO[C@@H]1[C@H](O)[C@@H](COP(=O)(O)O[C@H]2CN(Cc3c[nH]c4c(N)ncnc34)C[C@@H]2COP(=O)(O)O[C@H]2[C@@H](OC)[C@H](n3cnc4c(=O)[nH]c(N)nc43)O[C@@H]2CO)O[C@H]1n1cnc2c(=O)[nH]c(N)nc21` [compound 32, GpDIApG (2'-O-methyl guanosines)], the Ki (SAP (saporin L3) [1]) was 0.033 ± 0.0017 µM.

With “catalytically inactive substrate analogue PDpApGpPD (adenosine in place of DIA; PD = propanediol)” the Ki (SAP (saporin L3) [1]; read-out: Inhibition constant Ki*) was 16 µM.

For “serinol analogue of PDpDIApGpPD (Ser = serinol; PD = propanediol) [PDpSerpGpPD]”, the Ki (SAP (saporin L3) [2]) is given as 43.2 ± 1.1 nM.

In the case of PDpHomoSerpGpPD [Compound 52], the “inhibition of SAP (in words)” value (Saporin L3 (SAP)) is reported as “good inhibitors”.

From publication PMC5296225 (European journal of medicinal chemistry, 2016)
